Assay results: PubChem BioAssay (NCI)
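Cells were grown in 96-well plates and exposed to each compound for 48 hours at five concentrations; endpoints were interpolated linearly between bracketing concentrations, or set to the highest concentration if not reached. TGI: concentration producing complete growth inhibition.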

Key:
Experiment in all cases: inhibition of tumour cell growth, NCI panel, 48 h
HL-60(TB) leukemia = test system: HL-60(TB) leukemia
HCT-116 colon = test system: HCT-116 colon
SK-MEL-28 melanoma = test system: SK-MEL-28 melanoma
SK-MEL-2 melanoma = test system: SK-MEL-2 melanoma
COLO 205 colon = test system: COLO 205 colon
UACC-257 melanoma = test system: UACC-257 melanoma
HCC-2998 colon = test system: HCC-2998 colon
HT29 colon = test system: HT29 colon
OVCAR-4 ovarian = test system: OVCAR-4 ovarian
SW-620 colon = test system: SW-620 colon
KM12 colon = test system: KM12 colon
BT-549 breast = test system: BT-549 breast
PC-3 prostate = test system: PC-3 prostate
SN12C renal = test system: SN12C renal
ACHN renal = test system: ACHN renal
786-0 renal = test system: 786-0 renal
HOP-92 NSCLC = test system: HOP-92 NSCLC
SF-268 CNS = test system: SF-268 CNS
SK-OV-3 ovarian = test system: SK-OV-3 ovarian
NCI-H226 lung = test system: NCI-H226 lung
OVCAR-3 ovarian = test system: OVCAR-3 ovarian
RPMI-8226 leukemia = test system: RPMI-8226 leukemia
MDA-N = test system: MDA-N
DU-145 prostate = test system: DU-145 prostate
M14 melanoma = test system: M14 melanoma
K-562 leukemia = test system: K-562 leukemia
MOLT-4 leukemia = test system: MOLT-4 leukemia
U251 CNS = test system: U251 CNS
EKVX NSCLC = test system: EKVX NSCLC
TK-10 renal = test system: TK-10 renal
IGROV1 ovarian = test system: IGROV1 ovarian
A498 renal = test system: A498 renal
A549 NSCLC = test system: A549 NSCLC
NCI-H522 lung = test system: NCI-H522 lung
HS 578T breast = test system: HS 578T breast
OVCAR-8 ovarian = test system: OVCAR-8 ovarian
OVCAR-5 ovarian = test system: OVCAR-5 ovarian
MCF7 breast = test system: MCF7 breast
MDA-MB-435 = test system: MDA-MB-435
UO-31 renal = test system: UO-31 renal
NCI-H23 lung = test system: NCI-H23 lung
NCI/ADR-RES ovarian = test system: NCI/ADR-RES ovarian
MALME-3M melanoma = test system: MALME-3M melanoma
MDA-MB-231 breast = test system: MDA-MB-231 breast
NCI-H460 lung = test system: NCI-H460 lung
LOX IMVI melanoma = test system: LOX IMVI melanoma
SNB-75 CNS = test system: SNB-75 CNS
SF-295 CNS = test system: SF-295 CNS
SK-MEL-5 melanoma = test system: SK-MEL-5 melanoma
HOP-62 NSCLC = test system: HOP-62 NSCLC
UACC-62 melanoma = test system: UACC-62 melanoma
SNB-19 CNS = test system: SNB-19 CNS
HCT-15 colon = test system: HCT-15 colon
CAKI-1 renal = test system: CAKI-1 renal
T-47D breast = test system: T-47D breast
RXF 393 renal = test system: RXF 393 renal
CCRF-CEM leukemia = test system: CCRF-CEM leukemia
SR leukemia = test system: SR leukemia
SF-539 CNS = test system: SF-539 CNS

COP(=O)(O)/C=C/C(NC(=O)C(Cl)(Cl)Cl)c1ccccc1 (stereo unspecified)
TGI (HL-60(TB) leukemia): > 100 µM
TGI (HCT-116 colon): > 100 µM
TGI (SK-MEL-28 melanoma): > 100 µM
TGI (SK-MEL-2 melanoma): > 100 µM
TGI (COLO 205 colon): > 100 µM
TGI (UACC-257 melanoma): > 100 µM
TGI (HCC-2998 colon): > 100 µM
TGI (HT29 colon): > 100 µM
TGI (OVCAR-4 ovarian): > 100 µM
TGI (SW-620 colon): > 100 µM
TGI (KM12 colon): > 100 µM
TGI (BT-549 breast): > 100 µM
TGI (PC-3 prostate): > 100 µM
TGI (SN12C renal): > 100 µM
TGI (ACHN renal): > 100 µM
TGI (786-0 renal): > 100 µM
TGI (HOP-92 NSCLC): > 100 µM
TGI (SF-268 CNS): > 100 µM
TGI (SK-OV-3 ovarian): > 100 µM
TGI (NCI-H226 lung): > 100 µM
TGI (OVCAR-3 ovarian): > 100 µM
TGI (RPMI-8226 leukemia): > 100 µM
TGI (MDA-N): > 100 µM
TGI (DU-145 prostate): > 100 µM
TGI (M14 melanoma): > 100 µM
TGI (K-562 leukemia): > 100 µM
TGI (MOLT-4 leukemia): > 100 µM
TGI (U251 CNS): > 100 µM
TGI (EKVX NSCLC): > 100 µM
TGI (TK-10 renal): > 100 µM
TGI (IGROV1 ovarian): > 100 µM
TGI (A498 renal): > 100 µM
TGI (A549 NSCLC): > 100 µM
TGI (NCI-H522 lung): > 100 µM
TGI (HS 578T breast): > 100 µM
TGI (OVCAR-8 ovarian): > 100 µM
TGI (OVCAR-5 ovarian): > 100 µM
TGI (MCF7 breast): > 100 µM
TGI (MDA-MB-435): > 100 µM
TGI (UO-31 renal): > 100 µM
TGI (NCI-H23 lung): > 100 µM
TGI (NCI/ADR-RES ovarian): > 100 µM
TGI (MALME-3M melanoma): > 100 µM
TGI (MDA-MB-231 breast): > 100 µM
TGI (NCI-H460 lung): > 100 µM
TGI (LOX IMVI melanoma): > 100 µM
TGI (SNB-75 CNS): > 100 µM
TGI (SF-295 CNS): > 100 µM
TGI (SK-MEL-5 melanoma): > 100 µM
TGI (HOP-62 NSCLC): > 100 µM
TGI (UACC-62 melanoma): > 100 µM
TGI (SNB-19 CNS): > 100 µM
TGI (HCT-15 colon): > 100 µM
TGI (CAKI-1 renal): > 100 µM
TGI (T-47D breast): > 100 µM
TGI (RXF 393 renal): > 100 µM

COc1ccc(N2C(=O)c3c4c(c5c([nH]c6ncccc65)c3C2=O)CCC(C(C)(C)C)C4)cc1 (stereo unspecified)
TGI (HL-60(TB) leukemia): > 100 µM
TGI (HCT-116 colon): > 100 µM
TGI (SK-MEL-28 melanoma): > 100 µM
TGI (CCRF-CEM leukemia): > 100 µM
TGI (SR leukemia): > 100 µM
TGI (COLO 205 colon): > 100 µM
TGI (UACC-257 melanoma): > 100 µM
TGI (HCC-2998 colon): > 100 µM
TGI (HT29 colon): > 100 µM
TGI (OVCAR-4 ovarian): > 100 µM
TGI (SW-620 colon): > 100 µM
TGI (KM12 colon): > 100 µM
TGI (BT-549 breast): > 100 µM
TGI (PC-3 prostate): > 100 µM
TGI (SN12C renal): > 100 µM
TGI (ACHN renal): > 100 µM
TGI (786-0 renal): > 100 µM
TGI (SF-268 CNS): > 100 µM
TGI (SK-OV-3 ovarian): > 100 µM
TGI (NCI-H226 lung): > 100 µM
TGI (OVCAR-3 ovarian): > 100 µM
TGI (RPMI-8226 leukemia): > 100 µM
TGI (MDA-N): > 100 µM
TGI (DU-145 prostate): > 100 µM
TGI (M14 melanoma): > 100 µM
TGI (SF-539 CNS): > 100 µM
TGI (U251 CNS): 98 µM
TGI (EKVX NSCLC): > 100 µM
TGI (TK-10 renal): > 100 µM
TGI (IGROV1 ovarian): > 100 µM
TGI (A549 NSCLC): > 100 µM
TGI (NCI-H522 lung): > 100 µM
TGI (HS 578T breast): 72.2 µM
TGI (OVCAR-8 ovarian): > 100 µM
TGI (MCF7 breast): > 100 µM
TGI (MDA-MB-435): > 100 µM
TGI (UO-31 renal): > 100 µM
TGI (NCI-H23 lung): > 100 µM
TGI (NCI/ADR-RES ovarian): > 100 µM
TGI (MDA-MB-231 breast): > 100 µM
TGI (NCI-H460 lung): > 100 µM
TGI (SNB-75 CNS): 32.8 µM
TGI (SF-295 CNS): > 100 µM
TGI (SK-MEL-5 melanoma): > 100 µM
TGI (HOP-62 NSCLC): > 100 µM
TGI (UACC-62 melanoma): > 100 µM
TGI (SNB-19 CNS): > 100 µM
TGI (HCT-15 colon): > 100 µM
TGI (T-47D breast): > 100 µM
TGI (RXF 393 renal): > 100 µM
